Measurements taken from PubChem BioAssay (NCI).
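GI50 = concentration required for 50% inhibition of growth. TGI: concentration producing complete growth inhibition.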

Tests used:
Experiment in all cases: inhibition of tumour cell growth, NCI panel, 384-well format
HOP-92 NSCLC = test system: HOP-92 NSCLC
SN12C renal = test system: SN12C renal
NCI-H522 lung = test system: NCI-H522 lung
OVCAR-8 ovarian = test system: OVCAR-8 ovarian
SF-268 CNS = test system: SF-268 CNS
A498 renal = test system: A498 renal
DU-145 prostate = test system: DU-145 prostate
HCT-15 colon = test system: HCT-15 colon
TK-10 renal = test system: TK-10 renal
MALME-3M melanoma = test system: MALME-3M melanoma
UO-31 renal = test system: UO-31 renal
OVCAR-3 ovarian = test system: OVCAR-3 ovarian
NCI-H226 lung = test system: NCI-H226 lung
MDA-MB-231 breast = test system: MDA-MB-231 breast
SF-295 CNS = test system: SF-295 CNS
OVCAR-4 ovarian = test system: OVCAR-4 ovarian
SK-MEL-28 melanoma = test system: SK-MEL-28 melanoma
CAKI-1 renal = test system: CAKI-1 renal
MCF7 breast = test system: MCF7 breast
NCI-H322M lung = test system: NCI-H322M lung
CCRF-CEM leukemia = test system: CCRF-CEM leukemia
KM12 colon = test system: KM12 colon
MDA-MB-468 breast = test system: MDA-MB-468 breast
SK-OV-3 ovarian = test system: SK-OV-3 ovarian
IGROV1 ovarian = test system: IGROV1 ovarian
OVCAR-5 ovarian = test system: OVCAR-5 ovarian
PC-3 prostate = test system: PC-3 prostate
U251 glioblastoma = test system: U251 glioblastoma
T-47D breast = test system: T-47D breast
HCC-2998 colon = test system: HCC-2998 colon
COLO 205 colon = test system: COLO 205 colon
SNB-19 CNS = test system: SNB-19 CNS
SR leukemia = test system: SR leukemia
SW-620 colon = test system: SW-620 colon
A549 NSCLC = test system: A549 NSCLC
RXF 393 renal = test system: RXF 393 renal
LOX IMVI melanoma = test system: LOX IMVI melanoma
UACC-62 melanoma = test system: UACC-62 melanoma
UACC-257 melanoma = test system: UACC-257 melanoma
ACHN renal = test system: ACHN renal
HT29 colon = test system: HT29 colon
SK-MEL-2 melanoma = test system: SK-MEL-2 melanoma
BT-549 breast = test system: BT-549 breast
NCI/ADR-RES ovarian = test system: NCI/ADR-RES ovarian
MDA-MB-435 melanoma = test system: MDA-MB-435 melanoma
M14 melanoma = test system: M14 melanoma
HL-60(TB) leukemia = test system: HL-60(TB) leukemia
HCT-116 colon = test system: HCT-116 colon
MOLT-4 leukemia = test system: MOLT-4 leukemia
HOP-62 NSCLC = test system: HOP-62 NSCLC
K-562 leukemia = test system: K-562 leukemia
NCI-H460 NSCLC = test system: NCI-H460 NSCLC
NCI-H23 lung = test system: NCI-H23 lung
SF-539 CNS = test system: SF-539 CNS
786-0 renal = test system: 786-0 renal
SK-MEL-5 melanoma = test system: SK-MEL-5 melanoma

## CCN(C(=O)c1cc(F)ccc1Oc1cncnc1N1CC2(CCN(CC3CCC(NS(=O)(=O)CC)CC3)CC2)C1)C(C)C (configuration not stated)
HOP-92 NSCLC
  GI50: 2.2 µM
  TGI: 41.5 µM
SN12C renal
  GI50: > 100 µM
  TGI: > 100 µM
NCI-H522 lung
  GI50: 92.3 µM
  TGI: > 100 µM
OVCAR-8 ovarian
  GI50: > 100 µM
  TGI: > 100 µM
SF-268 CNS
  GI50: > 100 µM
  TGI: > 100 µM
A498 renal
  GI50: 77.3 µM
  TGI: > 100 µM
DU-145 prostate
  GI50: > 100 µM
  TGI: > 100 µM
HCT-15 colon
  GI50: > 100 µM
  TGI: > 100 µM
TK-10 renal
  GI50: > 100 µM
  TGI: > 100 µM
MALME-3M melanoma
  GI50: > 100 µM
  TGI: > 100 µM
UO-31 renal
  GI50: > 100 µM
  TGI: > 100 µM
OVCAR-3 ovarian
  GI50: 63.5 µM
  TGI: > 100 µM
NCI-H226 lung
  GI50: > 100 µM
  TGI: > 100 µM
MDA-MB-231 breast
  GI50: 18.7 µM
  TGI: > 100 µM
SF-295 CNS
  GI50: > 100 µM
  TGI: > 100 µM
OVCAR-4 ovarian
  GI50: 82.6 µM
  TGI: > 100 µM
SK-MEL-28 melanoma
  GI50: > 100 µM
  TGI: > 100 µM
CAKI-1 renal
  GI50: > 100 µM
  TGI: > 100 µM
MCF7 breast
  GI50: > 100 µM
  TGI: > 100 µM
NCI-H322M lung
  GI50: > 100 µM
  TGI: > 100 µM
CCRF-CEM leukemia
  GI50: 10.1 µM
  TGI: 43.1 µM
KM12 colon
  GI50: > 100 µM
  TGI: > 100 µM
MDA-MB-468 breast
  GI50: 65.5 µM
  TGI: > 100 µM
SK-OV-3 ovarian
  GI50: > 100 µM
  TGI: > 100 µM
IGROV1 ovarian
  GI50: > 100 µM
  TGI: > 100 µM
OVCAR-5 ovarian
  GI50: > 100 µM
  TGI: > 100 µM
PC-3 prostate
  GI50: > 100 µM
  TGI: > 100 µM
U251 glioblastoma
  GI50: > 100 µM
  TGI: > 100 µM
T-47D breast
  GI50: 72.3 µM
  TGI: > 100 µM
HCC-2998 colon
  GI50: 2.94 µM
  TGI: > 100 µM
COLO 205 colon
  GI50: 78.3 µM
  TGI: > 100 µM
SNB-19 CNS
  GI50: > 100 µM
  TGI: > 100 µM
SR leukemia
  GI50: 81.2 µM
  TGI: > 100 µM
SW-620 colon
  GI50: > 100 µM
  TGI: > 100 µM
A549 NSCLC
  GI50: > 100 µM
  TGI: > 100 µM
RXF 393 renal
  GI50: 0.753 µM
  TGI: > 100 µM
LOX IMVI melanoma
  GI50: > 100 µM
  TGI: > 100 µM
UACC-62 melanoma
  GI50: > 100 µM
  TGI: > 100 µM
UACC-257 melanoma
  GI50: > 100 µM
  TGI: > 100 µM
ACHN renal
  GI50: > 100 µM
  TGI: > 100 µM
HT29 colon
  GI50: > 100 µM
  TGI: > 100 µM
SK-MEL-2 melanoma
  GI50: 24.5 µM
  TGI: > 100 µM
BT-549 breast
  GI50: 92.7 µM
  TGI: > 100 µM
NCI/ADR-RES ovarian
  GI50: > 100 µM
  TGI: > 100 µM
MDA-MB-435 melanoma
  GI50: > 100 µM
  TGI: > 100 µM
M14 melanoma
  GI50: > 100 µM
  TGI: > 100 µM
HL-60(TB) leukemia
  GI50: > 100 µM
  TGI: > 100 µM
HCT-116 colon
  GI50: > 100 µM
  TGI: > 100 µM
MOLT-4 leukemia
  GI50: 1.17 µM
  TGI: 3.67 µM
HOP-62 NSCLC
  GI50: > 100 µM
  TGI: > 100 µM
K-562 leukemia
  GI50: > 100 µM
  TGI: > 100 µM
NCI-H460 NSCLC
  GI50: > 100 µM
  TGI: > 100 µM
NCI-H23 lung
  GI50: > 100 µM
  TGI: > 100 µM
SF-539 CNS
  GI50: > 100 µM
  TGI: > 100 µM
786-0 renal
  GI50: > 100 µM
  TGI: > 100 µM
SK-MEL-5 melanoma
  GI50: > 100 µM
  TGI: > 100 µM
